Common to all, as to format: functional, cell-based
For one assay, the system named is HT-29. As to the kind of experiment: Cytotoxicity against human HT29 cells after 72 hrs. The following applies: HT-29, 72 h.
The nature of assay [1]: Cytotoxicity against human KB16 cells after 72 hrs. Particulars: KB16, 72 h.
The subject of the next assay is A549. As to the kind of experiment: Cytotoxicity against human A549 cells after 72 hrs. Particulars: A549, 72 h.
For a further assay, the system named is P388. As to the kind of experiment: Cytotoxicity against mouse P388 cells after 72 hrs. The following applies: P388, 72 h.

Values after ≈ are worked out from the molar mass of the structure shown. Some results are limits rather than exact numbers.

By IC50 is commonly meant the concentration that gives 50% inhibition. High values mean weaker potency, low ones greater potency. For `CC(=O)O[C@H]1C[C@H]2[C@@H](OC(=O)c3ccccc3)[C@@H]3[C@](O)(CO)[C@@H](OC(C)=O)C[C@H](OC(C)=O)[C@@]3(C)[C@@H](OC(C)=O)[C@H](OC(C)=O)C(=C1C)C2(C)C`, the IC50 was found to be 1.4 µg/mL (≈ 1.95 µM) in the assay on HT-29, 1 µg/mL (≈ 1.4 µM) in assay [1], 4.8 µg/mL (≈ 6.7 µM) in the assay on A549 and 2.4 µg/mL (≈ 3.35 µM) in the assay on P388.

For `CC(=O)O[C@H]1C[C@H]2[C@@H](O)[C@@H]3[C@](O)(COC(=O)c4ccccc4)[C@@H](OC(C)=O)C[C@H](OC(C)=O)[C@@]3(C)[C@@H](OC(C)=O)[C@H](OC(C)=O)C(=C1C)C2(C)C` [TAXUMAIROL A], the IC50 in the assay on HT-29 was 1 µg/mL (≈ 1.4 µM); in assay [1], 0.4 µg/mL (≈ 0.558 µM); in the assay with A549, 1.7 µg/mL (≈ 2.37 µM); in the assay with P388 it was 0.05 µg/mL (≈ 0.0698 µM).

As for `CC(=O)O[C@H]1C[C@@]2(O)[C@@H](OC(C)=O)[C@@H]3[C@@]4(CO4)[C@@H](OC(C)=O)C[C@H](O)[C@@]3(C)[C@@H](O)[C@H](OC(C)=O)C(=C1C)C2(C)C` [TAXUMAIROL B], the IC50 in the assay on HT-29 was > 50 µg/mL; in assay [1], 1.4 µg/mL (≈ 2.46 µM); in the assay on A549, > 50 µg/mL; in the assay on P388, > 50 µg/mL.

The record behind these values is ChEMBL document CHEMBL1158189, “New taxane diterpenoids from the roots of Taxus mairei” (J Nat Prod, 1996).
